From US6471976B1, “Copper complex bactericide/fungicide and method of making same” (priority 1990, dated 2002)

Tested on: Colletotrichum lagenarium
Experiment: Efficacy against Colletotrichum lagenarium on cucumber plants
Details: in vivo

Compound: [Cu] [copper]
- estimated LD90 rate for the control of Colletotrichum lagenarium on cucumber plants: 200 ppm
